Test results reported in patent publication US7550510B2, “Solid phase synthesis of arylretinamides” (Wisconsin Alumni Research Foundation, priority 2001, dated 2009).

Columns and labels:
[1] = system: MCF-7 cells; assay: Inhibition of growth of cultured MCF-7 cells (cell number 48 h after a single dose); type: cell-based, human; details: activity vs. 4-HPR standard
Method: MCF-7 cells were maintained in DMEM supplemented as recommended by ATCC. Cells were plated (10,000/well) and dosed 24 h later dosed with the arylretinamide.

[2] = system: MCF-7 cells; assay: Induction of apoptosis in MCF-7 cells, TUNEL assay; type: cell-based; details: MCF-7 human breast cancer cell line, FIG. 4
Text: When DNA strands are cleaved or nicked by nucleases, a large number of 3′-hydroxyl ends are exposed. In the TUNEL assay (terminal deoxynucleotidyl transferase dUTP nick end labeling), these ends are labeled with UTP using mammalian terminal deoxynucleotidyl transferase (TdT), which covalently adds labeled nucleotides to the 3′-hydroxyl ends of these DNA fragments in a template-independent fashion. The UTP is then detected using specific probes (e.g., you can incorporate BrdUTP and then use a fluorescent anti-BrdU antibody). The assay can be used on cells in situ or the cells can be analyzed by flow cytometry.
The ability of arylretinamides 1, 7, 10, 11, 18, 19, 27, 32, 33, 41, 42, and 44 to induce apoptosis in MCF-7 cells was determined using a TUNEL assay as described in Engeland, M V; Nieland, L J W; Ramackers, F C S; Schutte, B; Reutelingsperger, CPM Cytometry 1998, 31, 1, which is specifically incorporated by reference.

[3] = all at 10^−5 M, 48 hours after a single dose

Row | Compound | growth inhibition [1, 3] | melting point [°C] | further results
1 | CC1=C(/C=C/C(C)=C/C=C/C(C)=C/C(=O)Nc2ccc(C(=O)O)cc2O)C(C)(C)CCC1 [Compound 22, N-(2′-hydroxy-4′-carboxyphenyl)retinamide] | − |  | 
2 | CC1=C(/C=C/C(C)=C/C=C/C(C)=C/C(=O)Nc2ccc(O)cc2Cl)C(C)(C)CCC1 [Compound 10, N-(2′-chloro-4′-hydroxyphenyl)retinamide] | − | 131.5 to 132.5 | 
3 | CC1=C(/C=C/C(C)=C/C=C/C(C)=C/C(=O)Nc2cc(C(C)(C)C)ccc2O)C(C)(C)CCC1 [Compound 5, N-(2′-hydroxy-5′-tert-butylphenyl)retinamide] | − | 144 to 146.5 | 
4 | CC1=C(/C=C/C(C)=C/C=C/C(C)=C/C(=O)Nc2ccc(C(=O)O)c(O)c2)C(C)(C)CCC1 [Compound 26, N-(3′-hydroxy-4′-carboxyphenyl)retinamide] | − |  | 
5 | CC1=C(/C=C/C(C)=C/C=C/C(C)=C/C(=O)Nc2ccc(C)cc2O)C(C)(C)CCC1 [Compound 3, N-(2′-hydroxy-4′-methylphenyl)retinamide] | − | 146 to 147.5 | 
6 | CC1=C(/C=C/C(C)=C/C=C/C(C)=C/C(=O)Nc2ccc(O)c(Cl)c2)C(C)(C)CCC1 [Compound 11, N-(3′-chloro-4′-hydroxyphenyl)retinamide] | + (+ = <50% the activity of standard) | 168 to 169 | inducing apoptosis of cells [2]: effective at inducing apopotosis
7 | CC(C=CC1=C(C)CCCC1(C)C)=CC=CC(C)=CC(=O)Nc1ccccc1C(=O)O [Compound 44, N-(2′-carboxyphenyl)retinamide, reference compound] | + (+ = <50% the activity of standard) |  | 
8 | COc1ccc(NC(=O)/C=C(C)/C=C/C=C(C)/C=C/C2=C(C)CCCC2(C)C)cc1O [Compound 9, N-(3′-hydroxy-4′-methoxyphenyl)retinamide] | − | 119 to 124 | 
9 | CC1=C(/C=C/C(C)=C/C=C/C(C)=C/C(=O)Nc2ccc(O)cc2C)C(C)(C)CCC1 [Compound 1, N-(2′-methyl-4′-hydroxyphenyl)retinamide] | − | 141 to 145 | inducing apoptosis of cells [2]: effective at inducing apopotosis
10 | CC1=C(/C=C/C(C)=C/C=C/C(C)=C/C(=O)Nc2cc(Cl)c(C)c(Cl)c2O)C(C)(C)CCC1 [Compound 15, N-(3′,5′-dichloro-2′-hydroxy-4′-methylphenyl)retinamide] | − | 140 to 142 | 
11 | CC1=C(/C=C/C(C)=C/C=C/C(C)=C/C(=O)Nc2cc(C)c(O)cc2C)C(C)(C)CCC1 [Compound 2, N-(4′-hydroxy-2′,5′-dimethylphenyl)retinamide] | − |  | 
12 | COC(=O)c1cccc(NC(=O)/C=C(C)/C=C/C=C(C)/C=C/C2=C(C)CCCC2(C)C)c1O [Compound 20, N-(2′-hydroxy-3′-carboxymethylphenyl)retinamide] | − |  | 
13 | CC1=C(/C=C/C(C)=C/C=C/C(C)=C/C(=O)Nc2cc([N+](=O)[O-])ccc2O)C(C)(C)CCC1 [Compound 19, N-(2′-hydroxy-5′-nitrophenyl)retinamide] | ++ (++ = >50% the activity of standard) | 151.5 to 153 | 
14 | CC1=C(/C=C/C(C)=C/C=C/C(C)=C/C(=O)Nc2cccc(CO)c2)C(C)(C)CCC1 [Compound 32, N-(3′ hydroxymethylphenyl)retinamide] | + (+ = <50% the activity of standard) | 118 to 120.5 | inducing apoptosis of cells [2]: perhaps, 32 are effective at inducing apopotosis
15 | COC(=O)c1ccc(O)c(NC(=O)/C=C(C)/C=C/C=C(C)/C=C/C2=C(C)CCCC2(C)C)c1 [Compound 29, N-(2′-hydroxy-5′-carboxymethylphenyl)retinamide] | − |  | 
16 | CC1=C(/C=C/C(C)=C/C=C/C(C)=C/C(=O)Nc2ccc(O)c(C(=O)O)c2)C(C)(C)CCC1 [Compound 28, N-(4′-hydroxy-3′-carboxyphenyl)retinamide] | − |  | 
17 | CC1=C(/C=C/C(C)=C/C=C/C(C)=C/C(=O)Nc2ccc(C)c(O)c2)C(C)(C)CCC1 [Compound 7, N-(3′-hydroxy-4′-methylphenyl)retinamide] | + (+ = <50% the activity of standard) | 172.5 to 175 | inducing apoptosis of cells [2]: effective at inducing apopotosis

Row | Compound | growth inhibition [1, 3] | melting point [°C] | further results
18 | CC1=C(/C=C/C(C)=C/C=C/C(C)=C/C(=O)Nc2cccc(O)c2C)C(C)(C)CCC1 [Compound 8, N-(3′-hydroxy-2′-methylphenyl)retinamide] | − | 176 to 176.5 | 
19 | CC1=C(/C=C/C(C)=C/C=C/C(C)=C/C(=O)Nc2cc(Cl)c(O)c(Cl)c2)C(C)(C)CCC1 [Compound 13, N-(3′,5′-dichloro-4′-hydroxyphenyl)retinamide] | − | 139 to 140 | 
20 | CCOc1ccc(NC(=O)/C=C(C)/C=C/C=C(C)/C=C/C2=C(C)CCCC2(C)C)cc1 [Compound 45, N-(4′-ethoxyphenyl)retinamide, reference compound] |  |  | growth inhibition ([1]; compound at 7.4 × 10^−6 M): −
21 | CC1=C(/C=C/C(C)=C/C=C/C(C)=C/C(=O)Nc2ccc([N+](=O)[O-])cc2O)C(C)(C)CCC1 [Compound 18, N-(2′-hydroxy-4′-nitrophenyl)retinamide] | ++ (++ = >50% the activity of standard) | 152 to 153.5 | inducing apoptosis of cells [2]: effective at inducing apopotosis
22 | CC1=C(/C=C/C(C)=C/C=C/C(C)=C/C(=O)Nc2c(O)cccc2C(=O)O)C(C)(C)CCC1 [Compound 24, N-(2′-hydroxy-6′-carboxyphenyl)retinamide] |  |  | growth inhibition ([1]; compound at 3.9 × 10^−6 M): −
23 | CC1=C(/C=C/C(C)=C/C=C/C(C)=C/C(=O)Nc2ccc(O)cc2)C(C)(C)CCC1 [Compound 41, N-(4′-hydroxyphenyl)retinamide, reference compound] | ++ (++ = >50% the activity of standard) |  | 
24 | CC1=C(/C=C/C(C)=C/C=C/C(C)=C/C(=O)Nc2ccccc2CO)C(C)(C)CCC1 [Compound 31, N-(2′-hydroxymethylphenyl)retinamide] |  | 72 to 74 | 
25 | CCS(=O)(=O)c1ccc(NC(=O)/C=C(C)/C=C/C=C(C)/C=C/C2=C(C)CCCC2(C)C)c(O)c1 [Compound 30, N-(4′-ethylsulfonyl-2′-hydroxyphenyl)retinamide] | − | 145 to 147 | 
26 | CC1=C(/C=C/C(C)=C/C=C/C(C)=C/C(=O)Nc2ccc(O)cc2[N+](=O)[O-])C(C)(C)CCC1 [Compound 16, N-(4′-hydroxy-2′-nitrophenyl)retinamide] | − | 112 to 117 | 
27 | CC1=C(/C=C/C(C)=C/C=C/C(C)=C/C(=O)Nc2cc(Cl)ccc2O)C(C)(C)CCC1 [Compound 12, N-(5′-chloro-2′-hydroxyphenyl)retinamide] | − | 115 to 118 | 
28 | CC1=C(/C=C/C(C)=C/C=C/C(C)=C/C(=O)Nc2c(C)cccc2O)C(C)(C)CCC1 [Compound 6, N-(2′-hydroxy-6′-methylphenyl)retinamide] | − |  | 
29 | CC1=C(/C=C/C(C)=C/C=C/C(C)=C/C(=O)Nc2ccc(O)c([N+](=O)[O-])c2)C(C)(C)CCC1 [Compound 17, N-(4′-hydroxy-3′-nitrophenyl)retinamide] | − | 157 to 159.5 | 
30 | COC(=O)c1cc(NC(=O)/C=C(C)/C=C/C=C(C)/C=C/C2=C(C)CCCC2(C)C)ccc1O [Compound 27, N-(4′-hydroxy-3′-carboxymethylphenyl)retinamide] | + (+ = <50% the activity of standard) |  | 
31 | CC1=C(/C=C/C(C)=C/C=C/C(C)=C/C(=O)Nc2cc(C)ccc2O)C(C)(C)CCC1 [Compound 4, N-(2′-hydroxy-5′-methylphenyl)retinamide] | − | 98 to 100 | 
32 | CC1=C(/C=C/C(C)=C/C=C/C(C)=C/C(=O)Nc2ccc(N)cc2)C(C)(C)CCC1 [Compound 33, N-(4′-aminophenyl)retinamide] | + (+ = <50% the activity of standard) |  | 
33 | CC1=C(/C=C/C(C)=C/C=C/C(C)=C/C(=O)Nc2cc(Br)c(O)c(Br)c2)C(C)(C)CCC1 [Compound 14, N-(3′,5′-dibromo-4′-hydroxyphenyl)retinamide] | − |  | 
34 | CC1=C(/C=C/C(C)=C/C=C/C(C)=C/C(=O)Nc2cccc(C(=O)O)c2O)C(C)(C)CCC1 [Compound 21, N-(2′-hydroxy-3′-carboxyphenyl)retinamide] | − |  | 
